In patent US20140088114A1, “FUSED BICYCLIC KINASE INHIBITORS” (OSI Pharmaceuticals ,LLC, priority 2011, published 2014):
Read-outs that look alike come from different tables or passages of the source.

Experiments:
[1] = molecular target: T1, RON (Homo sapiens, UniProt Q04912); test: sfRON cell mechanistic assay (HeLa), phosphorylated RON; assay type: cell-based
T1 construct: expressed in transfected cells; host or cells: HeLa
T1 sequence (Q04912 913-1400 limits assumed): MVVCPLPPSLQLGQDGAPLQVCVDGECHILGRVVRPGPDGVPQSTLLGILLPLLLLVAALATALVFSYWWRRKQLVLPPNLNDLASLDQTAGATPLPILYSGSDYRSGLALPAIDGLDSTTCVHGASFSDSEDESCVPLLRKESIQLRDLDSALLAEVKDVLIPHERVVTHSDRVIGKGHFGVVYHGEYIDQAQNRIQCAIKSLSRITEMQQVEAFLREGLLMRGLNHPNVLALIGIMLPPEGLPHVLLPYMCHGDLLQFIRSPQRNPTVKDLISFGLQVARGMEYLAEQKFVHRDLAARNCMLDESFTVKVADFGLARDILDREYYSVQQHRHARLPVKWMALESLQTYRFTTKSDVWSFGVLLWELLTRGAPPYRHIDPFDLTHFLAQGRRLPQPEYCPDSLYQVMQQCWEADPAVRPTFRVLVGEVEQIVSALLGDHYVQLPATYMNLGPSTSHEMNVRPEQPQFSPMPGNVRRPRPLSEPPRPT
Method: The cellular activity of the compounds of the present invention against RON may be determined by the following procedure. HeLa cells were plated in Falcon 3072 96-well plates in growth media (DMEM, 10% FBS, 1% L-glutamine) at a density of 10000 cells/well and incubated at 37° C., 5% CO2 overnight. The following day, cells were transfected with 0.2 μg sfRON-pcDNA plasmid DNA with 0.5 μL Lipofectamine2000 per well in the presence of 50 μL OPTI-MEM, incubated at 37° C., 5% CO2 overnight. Costar 3915 96-well assay plates were coated with rabbit Anti-RON antibody at 2.0 μg/mL, sealed, and incubated overnight at 4° C. On the third day, coated plates were washed with PBS and blocked with 3% BSA. For the sfRON transfected cells, one-tenth volume of a 10× concentration of compounds was added to the wells in a 6-point dilution series. The dilution series was composed of an initial 1:5 dilution of a 10 mM DMSO stock solution of compound in DMSO, followed by a 1:10 dilution in growth media, for a final DMSO concentration on cells of 0.5%. Control wells were treated with 0.5% DMSO. The typical range of dilution was 10 μM to 3 nM. Once compound was added to the cells, plates were incubated for four hours at 37° C., 5% CO2. Plates were then washed in PBS, and lysed in triton-based lysis buffer. Lysates were transferred to the blocked capture plates. The phosphorylated RON levels were measured by incubating with a Goat polyclonal antibody against phosphorylated RON ([pYpY1238/1239]) followed by an anti-Goat antibody conjugated to HRP. Signal was measured on a Wallac Victor plate reader with luminance. The DMSO signal of the control wells was defined as 100% and the percent of inhibition of phosphorylated RON was expressed as percent of control. IC50 values were determined from the percent of control data using a standard four-parameter model.
(§1) The IC50 values of exemplary compounds of the present invention determined in a sfRON cell mechanistic assay using the HeLa cell line according to the procedures described herein in at least duplicate experiments are abbreviated as follows and are shown in Table 3: A, IC50≦0.03 μM; B, 0.03 μM<IC50≦0.1 μM; C, 0.1 μM<IC50≦1 μM; D, 1 μM<IC50≦3 μM; ND, not determined. The Example # of Table 3 corresponds to the compound example number as illustrated in the Examples section.

[2] = molecular target: T2, Aurora B (Homo sapiens, UniProt Q96GD4); test: Aurora B cell mechanistic assay (HT-29), phospho-Histone H3 (Ser10) ELISA; assay type: cell-based; conditions: HT-29 cell line, inhibition of phospho-Histone H3 (Ser10), at least duplicate experiments (italicized if single); read-out: Aurora B mech IC50
T2 construct: HT-29 cells grown in complete growth media; endogenous in cells; host or cells: HT-29
Method: The cellular activity of the compounds of the present invention against Aurora B may be determined by the following procedure. HT-29 cells grown in complete growth media (McCoy's 5A, 10% FCS, 1% L-glutamine) were plated into wells of a 96 well tissue culture plate (Falcon 3072) at a cell density of 4×10^4 cells/0.09 ml media/well. Cells were subsequently incubated overnight in a 5% CO2 humidified 37° C. incubator. The following day 10 μl of a 10× stock of test compound serially diluted in media was added to the cells and incubated for 1 h at 37° C. at which time Calyculin A (Cell Signaling #9902) was added at a concentration of 100 nM and cells incubated for an additional 30 minutes in a 5% CO2 humidified 37° C. incubator. Media was then aspirated and cells lysed using a Triton based lysis buffer. Lysates were transferred to a pre-coated anti-Histone H3 antibody coated plate supplied by Cell Signaling in their PathScan phospho-Histone H3 (Ser10) ELISA kit (#7155). After an overnight incubation with lysate the ELISA was continued following the manufacturer's instructions. Signal was measured on a Wallac Victor plate reader at 450 nm. DMSO control treated cells served as 100% signal and an Aurora B kinase inhibitor served as 100% inhibition. The percent inhibition of phospho-Histone H3 (Ser10) was expressed as % control. IC50 values were calculated from the percent control data using a standard four-parameter model.
as §1, with “a Aurora B” for “a sfRON”, “the HT-29” for “the HeLa”, “Table 4:” for “Table 3:”, “determined. If only data from single experiments are available, the abbreviations are italicized.” for “determined.”, “Table 4” for “Table 3”

[3] = Table 6: comparison X = C1-3haloalkyl vs. X = C1-3alkyl, read-out: sfRON cell mechanistic
[4] = sfRON transfected HeLa cells, four hours incubation, inhibition of phosphorylated RON, at least duplicate experiments, read-out: sfRON mech IC50

T2 sequence (Q96GD4 whole entry): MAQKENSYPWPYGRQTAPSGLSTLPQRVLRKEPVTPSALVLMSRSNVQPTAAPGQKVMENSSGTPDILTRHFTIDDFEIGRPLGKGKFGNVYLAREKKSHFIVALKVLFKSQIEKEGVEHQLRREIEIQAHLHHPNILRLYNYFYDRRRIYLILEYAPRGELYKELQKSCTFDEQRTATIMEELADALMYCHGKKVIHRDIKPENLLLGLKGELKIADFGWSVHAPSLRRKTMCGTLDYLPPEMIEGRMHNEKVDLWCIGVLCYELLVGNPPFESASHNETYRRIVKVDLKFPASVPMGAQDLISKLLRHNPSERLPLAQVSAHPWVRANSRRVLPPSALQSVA

Row | SMILES | IC50 [1, 3] [nM] | IC50 [1, 4] [nM] | IC50 [2] [nM]
1 | Cn1cc(-c2cnc3[nH]cc(C(CF)c4c(Cl)ccc(F)c4Cl)c3c2)cn1 (stereo not drawn) [Example 1, 3-[1-(2,6-Dichloro-3-fluorophenyl)-2-fluoroethyl]-5-(1-methyl-1H-pyrazol-4-yl)-1H-pyrrolo[2,3-b]pyridine] | 100 to 1000 | 100 to 1000 | 100 to 1000
2 | COc1ccc(F)c(Cl)c1[C@@H](CF)c1c[nH]c2ncc(-c3cnn([C@H]4CC[C@H](O)CC4)c3)cc12 [Example 3, trans-4-(4-{3-[(1S)-1-(2-chloro-3-fluoro-6-methoxyphenyl)-2-fluoroethyl]-1H-pyrrolo[2,3-b]pyridin-5-yl}-1H-pyrazol-1-yl)cyclohexanol] | 30 to 100 | 30 to 100 | ≤ 30
3 | O[C@H]1CC[C@H](n2cc(-c3cnc4[nH]cc([C@@H](CF)c5c(OC(F)F)ccc(F)c5Cl)c4c3)cn2)CC1 [Example 4, trans-4-[4-(3-{(1R)-1-[2-Chloro-6-(difluoromethoxy)-3-fluorophenyl]-2-fluoroethyl}-1H-pyrrolo[2,3-b]pyridin-5-yl)-1H-pyrazol-1-yl]cyclohexanol] | 30 to 100 | 30 to 100 | 100 to 1000
4 | O[C@H]1CC[C@H](n2cc(-c3cnc4[nH]cc([C@H](CF)c5c(OC(F)F)ccc(F)c5Cl)c4c3)cn2)CC1 [Example 5, trans-4-[4-(3-{(1S)-1-[2-Chloro-6-(difluoromethoxy)-3-fluorophenyl]-2-fluoroethyl}-1H-pyrrolo[2,3-b]pyridin-5-yl)-1H-pyrazol-1-yl]cyclohexanol] | ≤ 30 | ≤ 30 | ≤ 30
